Measured values as given in patent US20230303552A1, “ARYLSULFONYL DERIVATIVES AND THEIR USE AS MUSCARINIC ACETYLCHOLINE RECEPTOR M5 INHIBITORS” (Vanderbilt University, priority 2020, published 2023).

Biological target: T1, human M5 receptors (hM5) (Homo sapiens, UniProt P08912)
T1 construct: expressed in transfected cells
T1 sequence (P08912 1-532): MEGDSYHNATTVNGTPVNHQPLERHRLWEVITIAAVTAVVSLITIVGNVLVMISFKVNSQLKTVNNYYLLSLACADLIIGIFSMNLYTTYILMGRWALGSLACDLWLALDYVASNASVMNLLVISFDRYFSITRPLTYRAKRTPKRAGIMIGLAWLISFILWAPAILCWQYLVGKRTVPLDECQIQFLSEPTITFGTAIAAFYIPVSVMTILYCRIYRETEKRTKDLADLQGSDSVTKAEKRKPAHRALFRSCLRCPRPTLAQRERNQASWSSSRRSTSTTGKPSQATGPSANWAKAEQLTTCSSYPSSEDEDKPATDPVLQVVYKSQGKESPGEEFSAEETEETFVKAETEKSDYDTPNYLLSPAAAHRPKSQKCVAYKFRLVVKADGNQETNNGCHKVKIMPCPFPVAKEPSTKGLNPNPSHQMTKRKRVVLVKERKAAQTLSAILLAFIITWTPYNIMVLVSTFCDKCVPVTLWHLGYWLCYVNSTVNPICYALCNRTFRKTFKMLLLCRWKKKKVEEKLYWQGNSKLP
Experiment: Cell-based functional calcium mobilization assay of mAChR M5 activity (inhibition of EC80 acetylcholine response) in CHO cells
Details: CHO cells stably expressing hM5; for IC50: calcium flux (Fluo-4), EC80 acetylcholine addition; for EC80 MIN: minimum of EC80 acetylcholine response, normalized to maximum acetylcholine response
Description: All functional cell-based assays were performed essentially as previously described (Marlo et al., Mol.Pharm. 2009, 75(3), 577-588; Brady et al., J. Pharm. & Exp. Ther. 2008, 327, 941-953). Initial, single point (10 µM) competitive and non-competitive inhibitor characterization was performed in stable Chinese Hamster Ovary (CHO) cell lines constitutively expressing human M5 receptors. These were plated at 15,000 cells per 20 µL per well in Greiner 384-well black-walled, TC-treated, clear-bottomed plates (Fisher) in Ham’s F12 medium supplemented with 10% FBS and 20 mM HEPES. Cells were incubated overnight at 37° C. under 5% CO2. The following day, medium was exchanged with assay buffer (Hank’s Balanced Salt Solution supplemented with 20 mM HEPES and 2.5 mM Probenecid, pH 7.4) leaving 20 µL of assay buffer in each well. This was followed by the addition of 20 µL of 2.3 µM of Fluo-4 AM (Invitrogen) in assay buffer (final concentration 1.15 µM). The cells were then incubated 50 minutes at 37° C. under 5% CO2. The assay buffer plus dye was then exchanged with fresh assay buffer leaving a volume of 20 µL in each well. Test compounds were diluted into assay buffer to a 2X (20 µM) concentration in 0.2% dimethylsulfoxide (DMSO) in columns 3 - 22 with matching DMSO concentration in columns 1, 2, 23, and […]; compounds were added to the assay for a final concentration of 10 µM and a final DMSO concentration of 0.1%. Acetylcholine (Sigma-Aldrich) was prepared to provide 5X concentrations of EC20, EC80, and ECmax in the triple-addition assay, providing a signal window to view agonism, potentiation, and inhibition of the acetylcholine response as well as a means to normalize to the maximum acetylcholine response.
Either an FDSS (Hamamatsu) or Panoptic (WaveFront Biosciences) kinetic imaging plate reader was used for assay execution and measurement of calcium flux. After establishing baseline fluorescence, test compounds (20 µL) were added to the cells using the reader’s integrated pipettor and allowed to equilibrate for 140 seconds before addition of the EC20 concentration of acetylcholine (10 µL) along with vehicle in selected DMSO-only wells in the outer two columns. The EC80 concentration of acetylcholine (10 µL) was added 125 seconds after the EC20 addition along with ECmax concentration in the wells receiving vehicle in the second addition. The raw fluorescence data from each well was normalized to the corresponding initial fluorescence reading (static ratio). The maximum fluorescence value following each addition was determined and the minimum value within that same timeframe was subtracted for each well then normalized to the average of the ECmax maximum-minimum response, providing a %AChmax value for each addition for each well. The single point values represent mean values determined within the EC80 addition timeframe obtained from at least three independent determinations performed in triplicate or greater (error bars represent +/- SEM) unless otherwise specified.
Further characterization of competitive and non-competitive inhibitor compounds (compound potency and mAChR subtype-selectivity) was performed on the FDSS with calcium mobilization assays performed as previously described (Marlo et al., 2009; Brady et al., 2008) and in a format similar to that described above using the same reagents. CHO cells stably expressing hM1, hM2/Gqi5, hM3, hM4/Gqi5, hM5, rM1, rM2/Gqi5, rM3, rM4/Gqi5, or rMs were plated in the manner described above. A ten-point concentration range of test compound was serial diluted in assay buffer to 2X final concentration and acetylcholine was diluted in assay buffer to 5X of the EC20 and EC80 concentrations, determined empirically and 5X maximal (2 mM final concentration) stock concentrations. FDSS protocols were carried out as described above; the static ratio was calculated and the minimum response subtracted from the maximum response within the timeframe of each addition. […]

IC50	EC80 MIN	SMILES
4960 nM	3%	CC1Cc2cc(S(=O)(=O)N3CC[C@@H](C(=O)Nc4ccc5scnc5c4)C3)ccc2O1 (mixture of isomers) [Compound 88, (3R)-N-(benzo[d]thiazol-5-yl)-1-((2-methyl-2,3-dihydrobenzofuran-5-yl)sulfonyll)pyrrolidine-3-carboxamide]
42 nM	2%	CC1COc2ccc(S(=O)(=O)N3CC[C@@H](C(=O)Nc4ccc5scnc5c4)C3)cc21 (mixture of isomers) [Compound 132, (3R)-N-(benzo[d]thiazol-5-yl)-1-((3-methyl-2,3-dihydrobenzofuran-5-yl)sulfonyl)pyrrolidine-3-carboxainide]
156 nM	3%	CC1COc2ccc(S(=O)(=O)N3C[C@H](C(=O)Nc4ccc5scnc5c4)[C@@H](C)C3)cc21 (mixture of isomers) [Compound 133, (3R,4R)-N-(benzo[d]thiazol-5-yl)-4-methyl-1-((3-methyl-2,3-dihydrobenzofuran-5-yl)sulfonyl)pyrrolidine-3-carboxamide]
74 nM	2%	Cc1cc2c(cc1S(=O)(=O)N1CC[C@@H](C(=O)Nc3ccc4scnc4c3)C1)C(C)CO2 (mixture of isomers) [Compound 146, (3R)-N-(benzo[d]thiazol-5-yl)-1-((3,6-dimethyl-2,3-dihydrobenzofuran-5-yl)sulfonyl)pyrrolidinc-3-carboxamide]
> 10000 nM	13%	O=C(Nc1ccc2scnc2c1)[C@H]1CCN(S(=O)(=O)c2cccnc2)C[C@H]1F (racemic) [Compound 72, cis-(rac)-N-(benzo[d]thiazol-5-yl)-3-fluoro-1-(pyridin-3-ylsulfonyl)piperidine-4-carboxamide]
> 10000 nM	45%	Cc1nn(C)cc1S(=O)(=O)N1CC[C@H](C(=O)Nc2ccc3scnc3c2)[C@H](F)C1 (racemic) [Compound 73, cis-(rac)-N-(benzo[d]thiazol-5-yl)-1-((1,3-dimethyl-1H-pyrazol-4-yl)sulfonyl)-3-fluoropiperidine-4-carboxamide]
4260 nM	18%	O=C(Nc1ccc2scnc2c1)[C@H]1CCN(S(=O)(=O)c2cccc3nsnc23)C[C@H]1F (racemic) [Compound 75, cis-(rac)-1-(benzo[c][1,2,5]thiadiazol-4-ylsulfonyl)-N-(benzo[d]thiazol-5-yl)-3-fluoropiperidine-4-carboxamide]
209 nM	2%	O=C(Nc1ccc2scnc2c1)[C@H]1CCN(S(=O)(=O)c2ccc3ncsc3c2)C[C@@H]1F (racemic) [Compound 77, trans-(rac)-N-(benzo[d]thiazol-5-yl)-1-(benzo[d]thiazol-6-ylsulfony1)-3-fluoropiperidine-4-carboxamide]
139 nM	2%	O=C(Nc1ccc2scnc2c1)[C@H]1CCN(S(=O)(=O)c2ccc(Cl)nc2)C[C@@H]1F (racemic) [Compound 79, trans-(rac)-N-(benzo[d]thiazol-5-yl)-1-((6-chloropyridin-3-yl)sulfonyl)-3-fluoropiperidine-4-carboxamide]
312 nM	3%	Cc1nn(C)cc1S(=O)(=O)N1CC[C@H](C(=O)Nc2ccc3scnc3c2)[C@@H](F)C1 (racemic) [Compound 80, trans-(rac)-N-(benzo[d]thiazol-5-yl)-1-((1,3-dimethyl-1H-pyrazol-4-yl)sulfonyl1)-3-fluoropiperidine-4-carboxamide]
500 nM	5%	O=C(Nc1ccc2scnc2c1)[C@H]1CCN(S(=O)(=O)c2cccc3nsnc23)C[C@@H]1F (racemic) [Compound 81, trans-(rac)-1-(benzo[c][1,2,5]thiadiazol-4-ylsulfonyl)-N-(benzo[d]thiazol-5-yl)-3-fluoropiperidine-4-carboxamide]
95 nM	2%	O=C(Nc1ccc2scnc2c1)[C@H]1CCN(S(=O)(=O)c2cccnc2)C[C@@H]1F (racemic) [Compound 82, trans-(rac)-N-(benzo[d]thiazol-5-yl)-3-fluoro-1-(pyridin-3-ylsulfonyl)piperidine-4-carboxamide]

Second part, the compound before the results:

SMILES	IC50	EC80 MIN
O=C(Nc1ccc2scnc2c1)C1CCN(S(=O)(=O)c2ccc3c(c2)CCO3)C1 (racemic) [Compound 15, (rac)-N-(benzo[d]thiazol-5-yl)-1-((2,3-dihydrobcnzofuran-5-yl)sulfonyl)pyrrolidine-3-carboxamide]	47 nM	2%
O=C(Nc1ccc2scnc2c1)C12CC1CN(S(=O)(=O)c1ccc3c(c1)CCO3)C2 (racemic) [Compound 23, (rac)-N-(benzo[d]thiazol-5-yl)-3-((2,3-dihydrobenzofuran-5-yl)sulfonyl)-3-azabicyclo[3.1.0]hexane-1-carboxamide]	248 nM	2%
O=C(Nc1ccc2scnc2c1)C1CCN(S(=O)(=O)c2cccnc2)C1 (racemic) [Compound 38, (rac)-N-(benzo[d]thiazol-5-yl)-1-(pyridin-3-ylsulfonyl)pyrrolidine-3-carboxamide]	> 10000 nM	29%
O=C(Nc1ccc2scnc2c1)C12CC1CN(S(=O)(=O)c1cccnc1)C2 (racemic) [Compound 40, (rac)-N-(benzo[d]thiazol-5-yl)-3-(pyridin-3-ylsulfonyl)-3-azabicyclo[3.1.0]hexane-1-carboxamide]	> 10000 nM	53%
O=C(Nc1ccc2scnc2c1)C12CC1CN(S(=O)(=O)c1cc3c(cc1F)OCC3)C2 (racemic) [Compound 43, (rac)-N-(benzo[d]thiazol-5-yl)-3-((6-fluoro-2,3-dihydrobenzofuran-5-yl)sulfonyl)-3-azabicyclo[3.1.0]hexane-1-carboxamide]	202 nM	3%
O=C(Nc1ccc2scnc2c1)[C@H]1CCN(S(=O)(=O)c2ccc3c(c2)CCO3)C[C@H]1F (racemic) [Compound 69, cis-(rac)-N-(benzo[d]thiazol-5-yl)-1-((2,3-dihydrobenzofuran-5-yl)sulfonyl)-3-fluoropiperidine-4-carboxamide]	2280 nM	2%
O=C(Nc1ccc2scnc2c1)[C@H]1CCN(S(=O)(=O)c2ccc3ncsc3c2)C[C@H]1F (racemic) [Compound 70, cis-(rac)-N-(benzo[d]|thiazol-5-yl-1)-1-(benzo[d]thiazol-6-ylsulfonyl)-3-fluoropiperidine-4-carboxamide]	> 10000 nM	63%
O=C(Nc1ccc2scnc2c1)[C@H]1CCN(S(=O)(=O)c2ccc(Cl)nc2)C[C@H]1F (racemic) [Compound 71, cis-(rac)-N-(benzo[d]thiazol-5-yl)-1-((6-chloropyridin-3-yl)sulfonyl)-3-fluoropiperidine-4-carboxamide]	> 10000 nM	20%
